Results reported in patent US10858362B2, “Imidazopyrazinones as PDE1 inhibitors” (H. Lundbeck A/S, priority 2015, dated 2020).

Tests used:
Assay type in all cases: biochemical
[1] = molecular target: PDE9 (Homo sapiens (Human), UniProt O76083); experiment: PDE9 inhibition assay
Method in brief: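 SPA radiometric read-out: after a 1 hr reaction, yttrium silicate beads were added, allowed to settle 1 hr in the dark and counted. Substrate 10 nM ^3H-cAMP, PDE9 amount giving 20-25% conversion, buffer 50 mM HEPES pH 7.6/10 mM MgCl2/0.02% Tween20, varying inhibitor amounts.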

[2] = molecular target: PDE1B (Homo sapiens (Human), UniProt Q01064); experiment: PDE1 inhibition assay, PDE1B; settings: 15 nM tritium labelled cAMP
Method: (§1) Reactions were initiated by addition of the cyclic nucleotide substrate, and reactions were allowed to proceed for 1 h at room temperature before being terminated through mixing with 20 μL (0.2 mg) yttrium silicate SPA beads (PerkinElmer). The beads were allowed to settle for 1 h in the dark before the plates were counted in a Wallac 1450 Microbeta counter.

[3] = molecular target: PDE1C (Homo sapiens (Human), UniProt Q14123); experiment: PDE1 inhibition assay, PDE1C; settings: 15 nM tritium labelled cAMP
Method: as §1

[4] = molecular target: PDE1A (Homo sapiens (Human), UniProt P54750); experiment: PDE1 inhibition assay, PDE1A; settings: 15 nM tritium labelled cAMP
Method: Reactions were initiated by addition of the cyclic nucleotide substrate, and reactions were allowed to proceed for 1 h at room temperature before being terminated through mixing with 20 μL (0.2 mg) yttrium silicate SPA beads (PerkinElmer).

Chain of PDE1B (Q01064 whole entry): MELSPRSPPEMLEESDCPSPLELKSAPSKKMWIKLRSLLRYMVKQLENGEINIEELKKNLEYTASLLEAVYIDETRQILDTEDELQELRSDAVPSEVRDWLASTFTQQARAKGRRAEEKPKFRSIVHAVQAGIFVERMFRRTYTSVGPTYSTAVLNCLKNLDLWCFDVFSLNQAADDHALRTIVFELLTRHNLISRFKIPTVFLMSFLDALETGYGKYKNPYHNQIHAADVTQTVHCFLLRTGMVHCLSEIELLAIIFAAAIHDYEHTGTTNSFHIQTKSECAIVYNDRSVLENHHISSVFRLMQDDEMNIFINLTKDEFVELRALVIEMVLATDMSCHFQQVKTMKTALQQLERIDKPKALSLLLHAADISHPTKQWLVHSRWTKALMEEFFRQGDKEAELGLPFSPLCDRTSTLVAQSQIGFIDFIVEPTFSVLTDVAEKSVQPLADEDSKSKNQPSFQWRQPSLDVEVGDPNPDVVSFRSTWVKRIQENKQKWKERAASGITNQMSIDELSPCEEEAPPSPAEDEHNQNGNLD
Chain of PDE9 (O76083 whole entry): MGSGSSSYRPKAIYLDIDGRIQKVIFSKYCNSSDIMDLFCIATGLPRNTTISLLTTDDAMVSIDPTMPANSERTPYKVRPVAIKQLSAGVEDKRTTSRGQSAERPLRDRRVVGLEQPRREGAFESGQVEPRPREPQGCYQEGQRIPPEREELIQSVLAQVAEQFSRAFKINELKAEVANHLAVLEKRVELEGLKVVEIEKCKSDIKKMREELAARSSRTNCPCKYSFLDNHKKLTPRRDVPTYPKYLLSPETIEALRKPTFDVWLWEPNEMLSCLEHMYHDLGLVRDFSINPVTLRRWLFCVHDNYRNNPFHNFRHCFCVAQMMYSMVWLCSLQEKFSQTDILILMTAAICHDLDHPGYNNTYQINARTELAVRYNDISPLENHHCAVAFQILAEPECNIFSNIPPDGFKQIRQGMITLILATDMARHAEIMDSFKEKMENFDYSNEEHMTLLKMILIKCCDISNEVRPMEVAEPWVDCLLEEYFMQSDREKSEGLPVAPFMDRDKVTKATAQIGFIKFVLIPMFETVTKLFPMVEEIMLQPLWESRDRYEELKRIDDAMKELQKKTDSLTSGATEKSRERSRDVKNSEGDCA
Chain of PDE1A (P54750 whole entry): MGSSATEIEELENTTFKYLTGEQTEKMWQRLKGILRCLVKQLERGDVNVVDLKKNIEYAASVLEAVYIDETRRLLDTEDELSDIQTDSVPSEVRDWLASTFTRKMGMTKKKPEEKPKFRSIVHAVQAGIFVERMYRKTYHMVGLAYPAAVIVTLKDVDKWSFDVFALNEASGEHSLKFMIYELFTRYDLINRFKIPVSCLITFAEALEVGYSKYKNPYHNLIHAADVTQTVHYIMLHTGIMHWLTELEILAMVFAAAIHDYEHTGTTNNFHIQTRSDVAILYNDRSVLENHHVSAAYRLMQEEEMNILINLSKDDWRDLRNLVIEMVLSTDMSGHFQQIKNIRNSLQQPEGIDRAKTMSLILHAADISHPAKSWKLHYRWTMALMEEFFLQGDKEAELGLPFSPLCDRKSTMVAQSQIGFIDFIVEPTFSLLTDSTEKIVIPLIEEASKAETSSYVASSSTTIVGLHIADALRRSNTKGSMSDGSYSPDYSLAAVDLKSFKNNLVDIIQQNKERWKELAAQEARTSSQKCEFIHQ
Chain of PDE1C (Q14123 whole entry): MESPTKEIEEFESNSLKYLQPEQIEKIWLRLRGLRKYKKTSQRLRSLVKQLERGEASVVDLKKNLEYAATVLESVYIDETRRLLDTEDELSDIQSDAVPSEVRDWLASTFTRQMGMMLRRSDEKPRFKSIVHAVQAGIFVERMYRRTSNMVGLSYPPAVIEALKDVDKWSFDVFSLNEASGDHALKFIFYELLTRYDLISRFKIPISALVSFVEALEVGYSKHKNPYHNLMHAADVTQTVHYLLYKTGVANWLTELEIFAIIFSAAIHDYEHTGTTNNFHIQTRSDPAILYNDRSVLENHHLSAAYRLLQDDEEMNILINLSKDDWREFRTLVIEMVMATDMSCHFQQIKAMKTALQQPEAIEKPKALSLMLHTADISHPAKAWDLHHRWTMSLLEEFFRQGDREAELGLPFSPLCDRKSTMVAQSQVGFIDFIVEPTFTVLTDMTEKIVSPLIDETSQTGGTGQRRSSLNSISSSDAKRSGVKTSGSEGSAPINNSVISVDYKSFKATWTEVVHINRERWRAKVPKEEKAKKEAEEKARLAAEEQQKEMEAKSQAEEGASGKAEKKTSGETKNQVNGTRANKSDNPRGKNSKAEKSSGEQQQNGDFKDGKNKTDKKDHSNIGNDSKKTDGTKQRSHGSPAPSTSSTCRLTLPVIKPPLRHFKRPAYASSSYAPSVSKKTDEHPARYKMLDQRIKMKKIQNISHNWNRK

SMILES | inhibition at 10 µM [1] | IC50 [2] | IC50 [3] | IC50 [4] | % inhibition of PDE9 at 10 microM ([1]; at 10 microM)
O=c1c2cnc(C3CCOCC3)n2cc(Cc2ccccc2)n1Cc1cccc(F)c1 [Example 2, 6-Benzyl-7-(3-fluorobenzyl)-3-(tetrahydro-2H-pyran-4-yl)imidazo[1,5-a]pyrazin-8(7H)-one] | -14% | 14 nM | 11 nM | 51 nM | 
Cc1cn2c([C@@H]3CCOC3)ncc2c(=O)n1Cc1cccc(F)c1 (single isomer, unassigned; isomer 1) [31, isomer 1] |  | 106 nM | 27 nM | 337 nM | −1%
Cc1cn2c(C3CCOCC3)ncc2c(=O)n1Cc1ccccc1 [Example 16, 7-Benzyl-6-methyl-3-(tetrahydro-2H-pyran-4-yl)imidazo[1,5-a]pyrazin-8(7H)-one] | 19% | 57 nM | 12 nM | 85 nM | 
Cc1cn2c(C3CCOCC3)ncc2c(=O)n1Cc1cccc(F)c1 [Example 5, 7-(3-Fluorobenzyl)-6-methyl-3-(tetrahydro-2H-pyran-4-yl)imidazo[1,5-a]pyrazin-8(7H)-one] | 18% | 120 nM | 14 nM | 108 nM | 

Second part, the molecule after the results:

inhibition at 10 µM [1] | IC50 [2] | IC50 [3] | IC50 [4] | % inhibition of PDE9 at 10 microM ([1]; at 10 microM) | SMILES
-22% | 18 nM | 52 nM | 27 nM |  | Cc1cn2c(C3CCOCC3)ncc2c(=O)n1Cc1ccc(OC(F)(F)F)cc1 [Example 41, 6-methyl-3-(tetrahydro-2H-pyran-4-yl)-7-(4-(trifluoromethoxy)benzyl)imidazo[1,5-a]pyrazin-8(7H)-one]
16% | 249 nM | 50 nM | 493 nM |  | Cc1cn2c(C3(F)CCOCC3)ncc2c(=O)n1Cc1cccc(F)c1 [Example 29, 7-(3-fluorobenzyl)-3-(4-fluorotetrahydro-2H-pyran-4-yl)-6-methylimidazo[1,5-a]pyrazin-8(7H)-one]
14% | 112 nM | 15 nM | 228 nM |  | Cc1cn2c(C3CCOCC3)ncc2c(=O)n1Cc1ccsc1 [Example 79, 6-methyl-3-(tetrahydro-2H-pyran-4-yl)-7-(thiophen-3-ylmethyl)imidazo[1,5-a]pyrazin-8(7H)-one]
-42% | 57 nM | 9 nM | 63 nM |  | Cc1cccc(Cn2c(C)cn3c(C4CCOCC4)ncc3c2=O)c1 [Example 25, 6-Methyl-7-(3-methylbenzyl)-3-(tetrahydro-2H-pyran-4-yl)imidazo[1,5-a]pyrazin-8(7H)-one]
6% | 32 nM | 9 nM | 105 nM |  | CCc1cn2c(C3CCOCC3)ncc2c(=O)n1Cc1ccccc1 [Example 43, 7-benzyl-6-ethyl-3-(tetrahydro-2H-pyran-4-yl)imidazo[1,5-a]pyrazin-8(7H)-one]
